Results from paper PMC11874779 (Drug Design, Development and Therapy, 2025).

Test system: Baf3-EGFR^19del/T790M/C797S
Assay: Xenograft tumor model
Type: in vivo, BALB/c nude mice
Settings: 100 mg/kg ig daily, 9 days, from tumor weight

Compound: C=CC(=O)Nc1cc(Nc2nccc(-c3cn(C)c4ccccc34)n2)c(OC)cc1N(C)CCN(C)C [Osimertinib]
- Tumor Growth Inhibition value (TGI): 13.5%
